Assay [1] in a line: Displacement of [3H]PAF from rabbit PAF receptor in isolated platelet plasma membrane. Format: cell membranes, Oryctolagus cuniculus. On the technique in general: In a radioligand displacement assay an active substance lowers the binding of a labelled ligand.
For assay [2], the species on record is Oryctolagus cuniculus. The assay is described as follows: Displacement of [3H]PAF from rabbit PAF receptor in isolated platelet plasma membrane at 10 uM. Format: cell membranes.

By IC50 is commonly meant the concentration at which inhibition is half-maximal. High values mean weaker potency in that assay, low ones greater potency in that assay. For orientation: Ki means a measure of affinity in units of concentration, obtained from inhibition or displacement. The low end stands for tighter binding, the high end for weaker binding. In assay [1], `C=CCC1=C[C@@]2(OC)[C@@H](C)[C@H](c3ccc(OC)c(OC)c3)[C@@H](C1=O)[C@@H]2OC(C)=O` [PUBERULIN A] came in with an IC50 of 7.3 µM and a Ki of 4.7 µM. Further, the Activity in assay [2] came out at 63%.
Take `C=CCC1=C[C@@]2(OC)[C@@H](C)[C@H](c3ccc4c(c3)OCO4)[C@@H](C1=O)[C@@H]2OC(C)=O` [PUBERULIN B]: in assay [1], the IC50 is ≥ 10 µM. The Activity in assay [2] turned out to be 43%.
Turning to `C=CC[C@]12C=C(OC)C(=O)[C@H]([C@@H](c3ccc(O)c(OC)c3)[C@@H]1C)[C@@H]2OC(C)=O` [PUBERULIN C], in assay [1], the IC50 amounted to 5.7 µM and the affinity corresponds to a Ki of 3.7 µM. This compound registered an Activity in assay [2] of 66%.

The values above are taken from ChEMBL document CHEMBL1159237, “The isolation and structural elucidation of three new neolignans, piperulins [corrected] A, B, and C, as platelet activating factor receptor antagonists from Piper puberulum” (J Nat Prod, 1995).
